# ChEMBL document CHEMBL1136471, “Fluorescence resonance energy transfer in a novel cyclodextrin-peptide conjugate for detecting steroid molecules” (Bioorg Med Chem Lett, 2003)
# Assays:
# [1] = Binding constant towards cyclodextrin conjugated peptide (with pyrene) at 25 degrees Centigrade
# [2] = Sensitivity value towards cyclodextrin conjugated peptide (with pyrene) at 25 degrees Centigrade; design: concentration or dose not given beside the values
Compound,Activity [1],Change in sensitivity [2]
C[C@H](CCC(=O)O)[C@H]1CC[C@H]2[C@@H]3[C@H](O)C[C@@H]4C[C@H](O)CC[C@]4(C)[C@H]3C[C@H](O)[C@]12C,900 Kb M-1,0.008
C[C@H](CCC(=O)O)[C@H]1CC[C@H]2[C@@H]3[C@H](O)C[C@@H]4C[C@H](O)CC[C@]4(C)[C@H]3CC[C@]12C,33300 Kb M-1,0.16
C[C@H](CCC(=O)O)[C@H]1CC[C@H]2[C@@H]3[C@@H](O)C[C@@H]4C[C@H](O)CC[C@]4(C)[C@H]3CC[C@]12C,173000 Kb M-1,0.4
C[C@H](CCC(=O)O)[C@H]1CC[C@H]2[C@@H]3C[C@H](O)[C@@H]4C[C@H](O)CC[C@]4(C)[C@H]3CC[C@]12C,210000 Kb M-1,0.4
C[C@H](CCC(=O)O)[C@H]1CC[C@H]2[C@@H]3CC[C@@H]4C[C@H](O)CC[C@]4(C)[C@H]3CC[C@]12C,439000 Kb M-1,0.45
"C[C@H](CCC(=O)O)[C@H]1CC[C@H]2[C@@H]3CC[C@@H]4C[C@H](O)CCC4(C)[C@H]3C[C@H](O)[C@]12C (single isomer, unassigned)",1100 Kb M-1,0.01
